Measurements: publication PMC8725005, “The crystal structure of DynF from the dynemicin-biosynthesis pathway of Micromonospora chersina” (Acta Crystallographica. Section F, Structural Biology …, 2022)

What was measured:
DynF = biological target: T1, DynF (Micromonospora chersina, UniProt B2BM43); assay: X-ray crystal structure ([…] Å); GC-MS of acetonitrile extract; type: binding; details: co-purified from E. coli; bound inside the beta-barrel cavity of each protomer
T1 construct: full-length, N-terminal 6xHis tag cleaved with TEV protease (one extra Ser before Met1); E. coli BL21 (DE3); dimer
T1 sequence (B2BM43 1-210): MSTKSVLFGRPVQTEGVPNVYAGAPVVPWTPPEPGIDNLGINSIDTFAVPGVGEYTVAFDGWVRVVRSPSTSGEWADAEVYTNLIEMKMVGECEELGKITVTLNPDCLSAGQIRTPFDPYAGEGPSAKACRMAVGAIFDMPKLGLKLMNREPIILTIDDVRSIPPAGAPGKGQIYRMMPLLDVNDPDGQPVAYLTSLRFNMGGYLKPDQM

[1] = biological target: the molecule itself; assay: crystal structure; sitting-drop vapor diffusion, 293 K, 25%(w/v) PEG 1500, 0.1 M PCB buffer pH 7.0; space group C222(1); two molecules in the asymmetric unit; palmitic acid bound

**Q.** Which “X-ray crystal structure (1.50 Å); GC-MS of acetonitrile extract” value (DynF) does the source give for CCCCCCCCCCCCCCCC(=O)O [palmitic acid] here?
**A.** The value was “confirmed by gas chromatography–mass spectrometry (GC-MS) as palmitic acid”.

B1: DynF from Micromonospora chersina ATCC53710 (natural protein)
chain: T1 sequence (B2BM43 1-210)
notes: DynF, Micromonospora chersina ATCC53710, protein of unknown function from the dynemicin biosynthetic gene cluster; GenBank ACB47058.1; the insert primers run from the ATG to the TGA stop codon; The tag mgsshhhhhhenlyfq/s was cut by TEV protease at the slash, so one serine of the tag stays before Met1 (211 residues a chain; 418 of 422 residues built for two chains); Vector pNIC28-Bsa4 (Addgene …)
**Q.** Does B1 bind [1]?
**A.** Result: binds
